This passage reports IC50 and Activity results from ChEMBL document CHEMBL1149539, “Design, synthesis, and biological activity of folate receptor-targeted prodrugs of thiolate histone deacetylase inhibitors” (Bioorg Med Chem Lett, 2007).

Structures are written as SMILES. Activity calls are given as the source filed them. No cut-off for these calls is given here.

Assay [1] concerns the target Histone deacetylase. Nature of the assay: Inhibition of HDAC in HeLa cells in presence of DTT after 30 mins by fluorescent activity assay. In kind it is cell-based, Homo sapiens.
Assay [2] deals with Histone deacetylase. As to the kind of experiment: Inhibition of HDAC in HeLa cells after 30 mins by fluorescent activity assay. In kind it is cell-based, Homo sapiens.
Assay [3] has as its system MCF7. Nature of the assay: Growth inhibition of human MCF7 cells after 72 hrs by Alamar Blue assay. The assay is classed as functional, cell-based.
The subject of assay [4] is MCF7. Nature of the assay: Increase in accumulation of acetylated histone H4 in human MCF7 cells after 14 hrs by Western blot analysis. In kind it is functional, cell-based.
Assay [5] relates to MCF7. As to the kind of experiment: Increase in accumulation of acetylated histone H4 in human MCF7 cells in presence of 100 uM folic acid after 14 hrs by Western blot analysis. The assay is classed as functional, cell-based.

On to `NC1=NC(=O)C2N=C(CNc3ccc(C(=O)N[C@@H](CCC(=O)NCCOCCOCCSSCCCCCCC(=O)Nc4ncc(-c5ccccc5)s4)C(=O)O)cc3)C=NC2=N1` (some centres not stated), for which the half-inhibitory concentration (IC50) on Histone deacetylase [1] is 3 µM.

On Histone deacetylase [2], `NC1=NC(=O)C2N=C(CNc3ccc(C(=O)N[C@@H](CCC(=O)NCCCCCCS)C(=O)O)cc3)C=NC2=N1` (some centres not stated) came in with a half-maximal inhibitory concentration (IC50) of 21 µM.

As for `NC1=NC(=O)C2N=C(CNc3ccc(C(=O)N[C@@H](CCC(=O)NCCSSCCCCCCC(=O)Nc4ncc(-c5ccccc5)s4)C(=O)O)cc3)C=NC2=N1` (some centres not stated), on Histone deacetylase [1], the IC50 was 0.27 µM. In the assay with MCF7 [3], the Activity entry was “Dose-dependent effect”. Further, the outcome in the assay with MCF7 [4] was Active. Moreover, the outcome in the assay on MCF7 [5] was inactive.

Regarding `NC1=NC(=O)C2N=C(CNc3ccc(C(=O)N[C@@H](CCC(=O)NCCCCCCSSCCCCCCNC(=O)CC[C@H](NC(=O)c4ccc(NCC5=NC6C(=O)N=C(N)N=C6N=C5)cc4)C(=O)O)C(=O)O)cc3)C=NC2=N1` (some centres not stated), on Histone deacetylase [1], the IC50 was found to be 9 µM.
